# Assay results published in patent publication US10940156B2, “Neuroactive steroids, compositions, and uses thereof” (Sage Therapeutics, Inc., priority 2016, dated 2021).
# Experiments:
# [1] = 14-day rat toxicology study; type: in vivo; settings: for NOAEL at 14 days: in vivo, 14-day daily administration, solution in Labrasol
# Method: (§1) The compound was assessed in 14-day rat and dog toxicology studies with daily administration of Compound 9 as a solution in HPBCD in dogs and Labrasol® in rats.
# (§2) The NOAEL in rats was 3 mg/kg (females) and 22.5 mg/kg (males), and was 2.5 mg/kg in dogs. […] A single observation of mortality occurred in one female rat at the high dose in a toxicokinetic study which was suspected to have been related to exaggerated pharmacology.
# rats = assay: 14-day rat toxicology study; type: in vivo
# Method: as §1, §2
# [2] = 14-day dog toxicology study; type: in vivo; settings: dog, in vivo; dogs; 14-day daily administration, solution in HPBCD
# Method: as §1, §2
# dogs = assay: 14-day dog toxicology study; type: in vivo
# Method: as §1, §2
# [3] = tested on: seizures arising from chemoconvulsants, proconvulsant stimuli, and genetic predisposition; assay: preclinical anticonvulsant models; type: in vivo, rodents; settings: oral
# Method: FIGS. 3A and 3B depict exemplary preclinical anticonvulsant efficacy in rodents.
# as §1
# [4] = toxicology and safety pharmacology studies across species; type: in vivo
# Method: as §1
# Expected risks are those identified during the toxicology and safety pharmacology studies for Compound 9 and clinical study Example 2. […] This will be monitored in the clinical study using two scales, one designed to monitor “sleepiness” (Stanford Sleepiness Scale) and one to monitor deeper sedation (Modified Observer's Assessment of Alertness/Sedation).
# healthy volunteers [5] = assay: Phase I single ascending dose (SAD) study: MOAA/S sedation and adverse events; type: in vivo, human
# Source text: Example 2. A Phase I, Double-Blind, Placebo-Controlled, Single Ascending Dose Study to Determine the Maximum Tolerated Dose (MTD), Pharmacokinetics and Pharmacodynamics of Compound 9 Oral Solution in Healthy Volunteers and the Safety, Tolerability, and Pharmacokinetics of Compound 9 in Subjects with Essential Tremor
# This four-part study will assess the effects of a single dose of Compound 9. The initial part of the study is a double-blind, placebo-controlled single ascending dose (SAD) design in healthy, adult volunteers with the objective of identifying the maximum tolerated dose (MTD) and pharmacokinetic (PK) profiles of Compound 9 Oral Solution. Escalation to the next dose will be undertaken only after safety and PK data have been reviewed by the Safety Review Committee (SRC) and agreement reached that it is safe to increase the dose. The SRC will not receive any unblinded PK data unless it is agreed upon by the SRC to unblind a subject and/or cohort based on the completed safety review.
# In each of the SAD cohorts, subjects will be randomly assigned to receive either Compound 9 (six subjects) or placebo (two subjects) in a blinded manner. Cohort 1 will receive Dose 1, Cohort 2 will receive Dose 2, and so on. With the exception of the Food cohort, study drug will be administered in a fasting state (no food and only water for the previous 12 hours) and a standard Phase 1 unit diet will be administered beginning approximately four to five hours after dosing. […]
# The MOAA/S allows exploration of deeper sedation states than the SSS. […] If a MOAA/S score of 3 or less (≤3) is observed, confirm the score by waiting approximately 10 minutes and readministering the MOAA/S assessment. […]
# healthy volunteers [6] = assay: Phase I multiple ascending dose (MAD) study: MOAA/S sedation; type: in vivo, human
# Source text: Example 3. Phase I, Double-Blind, Placebo-Controlled, Multiple Ascending Dose Study to Determine Safety, Tolerability, Pharmacokinetics and Pharmacodynamics of Compound 9 Oral Solution in Healthy Volunteers
# This study comprises a double blind, placebo-controlled multiple ascending dose (MAD) study followed by an open-label drug-drug interaction study (DDI) without placebo in healthy, adult volunteers. Four cohorts of 12 subjects each will be recruited for a total of 48 subjects. Subjects in Cohorts 1, 2, and 3 will participate in the multiple-ascending-dose (MAD) part of the study, and subjects in Cohort 4 will participate in the drug-drug-interaction (DDI) part of the study.
# The objective of the MAD part of the study is to determine the safety, tolerability, pharmacokinetics (PK), and pharmacodynamic (PD) profile of seven days of dosing with Compound 9 Oral Solution (henceforth referred to as Compound 9).
# The MOAA/S allows exploration of deeper sedation states than the SSS. All time points are relative to the time of dosing. If the planned time point is between the hours of 22:00 h and 08:00 h each day or if the subject has been discharged before the +72 hour time point, the assessment need not be conducted at that time point. If a subject is difficult to awaken, an additional MOAA/S assessment may be performed at the discretion of the PI. Any MOAA score of 3 or less must be repeated. […]
# [7] = male and female rats, non-adverse, reversible, without microscopic correlates
compound,measurement,setting,value
C[C@@]1(O)CC[C@H]2[C@H](CC[C@@H]3[C@@H]2CC[C@]2(C)[C@@H](C(=O)Cn4cc(C#N)cn4)CC[C@@H]32)C1 [Compound 9],AUC at 14 day,"[1]; plasma, 22.5 mg/kg, male rat 14-day toxicology, read-out: AUC at lowest NOAEL exposure in toxicology studies",5050 ng·h/mL
same,NOAEL at 14 days,"[1]; rat, female rats",3 mg/kg
same,NOAEL at 14 days,"[1]; rat, male rats",22.5 mg/kg
same,Cmax,"[1]; rat, plasma, 3 mg/kg, female rats, Day 14, read-out: estimated human Cmax based on the lowest NOAEL Day 14 Cmax in female rats",400 ng/mL
same,mortality,"rats; female rat, high dose, toxicokinetic study, suspected related to exaggerated pharmacology",one
same,increases in AST/ALT,rats; high dose male and female rats,< 2 fold
same,microscopic liver finding,rats; high dose male and female rats,increased incidence of minimal hepatocellular vacuolation
same,APTT,rats; [7],slight prolongation of APTT
same,urine pH,rats; [7],slight increase in urine pH
same,adverse effects in main toxicology study,rats; rats,no adverse effects
same,NOAEL at 14 days,[2],2.5 mg/kg
same,adverse effects in main toxicology study,dogs,no adverse effects
same,core body temperature,dogs,transient decreases in core body temperature
same,heart rate,dogs,transient increases in heart rate
same,renal microscopic finding,dogs; well-documented vehicle effect,minimal renal tubular vacuolation
same,anticonvulsant activity,[3],"orally active in preclinical anticonvulsant models, and suppressed seizures"
same,most common drug-related effect,"[4]; across species, studies and doses",dose-related sedation
same,manifestations of exaggerated pharmacology,[4]; nonclinical studies,sedation and ataxia
same,subjects with MOAA/S ≤2,"healthy volunteers [5]; 55 mg single dose, stopping criteria not met",2 subjects
same,subjects with MOAA/S ≤2,"healthy volunteers [5]; 66 mg single dose, stopping criteria met",2 subjects
same,adverse events possibly or probably related to the study drug,"healthy volunteers [5]; five SAD cohorts dosed, oral solution, study ongoing","mild drowsiness, mild confusion, somnolence, headache, orthostatic heart rate increase, aloofness, anxiety, sore throat and mild abdominal discomfort"
same,subjects with MOAA/S scores of 1 or 2 (deep sedation),"healthy volunteers [6]; 35 mg group, all at 1 hour post-dose",two
same,mean MOAA/S,healthy volunteers [6]; by 4 hours post-dose,approached baseline values
